# Data taken from US20250213558A1, “T-TYPE CALCIUM CHANNEL MODULATORS COMPRISING A PIPERAZINE OR 1,4-DIAZEPANE CORE AND METHODS OF USE THEREOF” (Praxis Precision Medicines, Inc., priority 2022, published 2025).
# Biological target: T1, Human Cav3.1 calcium channel (Homo sapiens, UniProt O43497)
# T1 construct: expressed in transfected cells; host or cells: HEK-293 natClytin/TASK1+Cav3.1 cell line
# Assay: Human Cav3.1 calcium channel patch clamp assay (SyncroPatch 384PE; single point and IC50, voltage dependent block)
# Type: cell-based
# Conditions: HEK-293 natClytin/TASK1+Cav3.1 cell line; for % Inhibition (Single Point Data): Testing Conc 1.25, patch clamp; for IC50: voltage dependent block (VDB), read-out: Cav3.1 IC50
# In short: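 Automated whole-cell patch clamp at room temperature, cells held at −120 mV; 100 ms step to −20 mV (resting block), then 1600 ms at −65 mV and a second −20 mV step (voltage-dependent block), every 15 s. Peak currents averaged over last 3 sweeps; % inhibition relative to nickel-sensitive current.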
# T1 sequence (O43497 whole entry): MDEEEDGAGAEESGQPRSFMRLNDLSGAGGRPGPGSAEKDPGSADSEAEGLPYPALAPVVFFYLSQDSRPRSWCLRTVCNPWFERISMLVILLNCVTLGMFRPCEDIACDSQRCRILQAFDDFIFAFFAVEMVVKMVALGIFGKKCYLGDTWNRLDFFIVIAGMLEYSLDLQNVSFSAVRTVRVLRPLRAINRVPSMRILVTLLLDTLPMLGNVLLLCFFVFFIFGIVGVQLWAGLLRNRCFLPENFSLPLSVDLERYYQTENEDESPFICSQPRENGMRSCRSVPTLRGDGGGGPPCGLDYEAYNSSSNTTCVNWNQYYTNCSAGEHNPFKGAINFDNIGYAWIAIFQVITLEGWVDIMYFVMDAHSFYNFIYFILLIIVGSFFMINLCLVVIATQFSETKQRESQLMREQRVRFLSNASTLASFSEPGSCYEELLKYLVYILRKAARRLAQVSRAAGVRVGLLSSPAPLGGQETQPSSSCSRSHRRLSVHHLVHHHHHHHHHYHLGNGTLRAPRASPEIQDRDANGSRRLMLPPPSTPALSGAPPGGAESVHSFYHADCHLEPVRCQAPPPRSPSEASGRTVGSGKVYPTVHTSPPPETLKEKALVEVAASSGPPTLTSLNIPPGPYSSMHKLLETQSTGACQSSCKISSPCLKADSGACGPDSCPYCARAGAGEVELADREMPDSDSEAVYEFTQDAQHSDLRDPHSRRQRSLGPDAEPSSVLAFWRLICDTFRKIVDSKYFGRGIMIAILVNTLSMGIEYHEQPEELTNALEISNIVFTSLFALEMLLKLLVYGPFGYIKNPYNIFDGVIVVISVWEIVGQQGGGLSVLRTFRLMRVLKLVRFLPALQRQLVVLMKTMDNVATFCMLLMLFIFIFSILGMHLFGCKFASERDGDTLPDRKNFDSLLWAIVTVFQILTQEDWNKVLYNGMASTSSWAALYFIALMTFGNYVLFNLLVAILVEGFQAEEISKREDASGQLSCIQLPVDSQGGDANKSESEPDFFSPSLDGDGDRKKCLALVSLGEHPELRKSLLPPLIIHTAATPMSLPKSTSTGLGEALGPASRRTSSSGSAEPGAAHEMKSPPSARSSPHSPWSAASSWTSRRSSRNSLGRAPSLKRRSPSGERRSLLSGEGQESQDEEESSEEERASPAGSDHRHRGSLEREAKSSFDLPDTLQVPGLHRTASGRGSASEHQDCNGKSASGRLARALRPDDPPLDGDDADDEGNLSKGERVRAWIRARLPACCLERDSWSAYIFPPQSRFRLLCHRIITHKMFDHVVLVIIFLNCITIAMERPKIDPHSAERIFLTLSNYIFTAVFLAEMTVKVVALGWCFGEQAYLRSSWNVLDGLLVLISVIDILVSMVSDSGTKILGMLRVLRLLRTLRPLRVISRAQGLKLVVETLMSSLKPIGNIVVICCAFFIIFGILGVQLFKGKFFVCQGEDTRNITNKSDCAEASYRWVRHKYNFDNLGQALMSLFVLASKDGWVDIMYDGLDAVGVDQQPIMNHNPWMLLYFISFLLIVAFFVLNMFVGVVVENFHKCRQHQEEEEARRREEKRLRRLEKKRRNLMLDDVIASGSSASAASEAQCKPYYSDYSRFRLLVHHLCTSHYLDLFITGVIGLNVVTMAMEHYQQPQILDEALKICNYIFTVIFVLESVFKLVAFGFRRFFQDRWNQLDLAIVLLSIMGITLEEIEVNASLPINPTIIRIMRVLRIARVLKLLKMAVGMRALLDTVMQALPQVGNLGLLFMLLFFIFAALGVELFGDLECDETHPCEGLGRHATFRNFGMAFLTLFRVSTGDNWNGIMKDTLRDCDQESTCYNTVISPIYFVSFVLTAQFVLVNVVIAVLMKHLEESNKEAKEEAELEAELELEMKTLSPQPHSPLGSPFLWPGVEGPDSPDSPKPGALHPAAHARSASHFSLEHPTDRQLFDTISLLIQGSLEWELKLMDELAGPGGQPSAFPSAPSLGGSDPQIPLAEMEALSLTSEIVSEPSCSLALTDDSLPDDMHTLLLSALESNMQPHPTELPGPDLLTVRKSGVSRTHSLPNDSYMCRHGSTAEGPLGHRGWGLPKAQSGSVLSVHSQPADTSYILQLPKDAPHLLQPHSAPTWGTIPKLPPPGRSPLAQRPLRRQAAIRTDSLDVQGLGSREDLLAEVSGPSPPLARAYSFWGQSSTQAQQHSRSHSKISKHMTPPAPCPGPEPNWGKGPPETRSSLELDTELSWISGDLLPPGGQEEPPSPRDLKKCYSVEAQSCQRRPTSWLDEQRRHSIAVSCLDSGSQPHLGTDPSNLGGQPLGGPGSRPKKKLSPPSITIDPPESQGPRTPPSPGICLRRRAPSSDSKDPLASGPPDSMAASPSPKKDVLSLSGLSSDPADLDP
Compound,% Inhibition (Single Point Data),IC50
CC(C)(C)NC(=O)CN1C2CC1CN(CC(=O)NC1CCCC(OC(F)F)C1)C2 (stereo not drawn) [Compound 321],66.321%,819 nM
CC(C)(C)NC(=O)CN1C2CC(CNC(=O)c3cc(F)cc(Cl)c3)CC1C2 (stereo not drawn) [Compound 322],91.88%,185 nM
CC(C)(C)NC(=O)CN1C[C@@H]2C[C@H]1CN2CCNC(=O)C12CC3CC(CC(C3)C1)C2 [Compound 323],17.66%,3390 nM
O=C(CN1C[C@@H]2C[C@H]1CN2CC(=O)NC1(C(F)(F)F)CC1)Nc1cc(F)cc(OC(F)F)c1 [Compound 324],100.07%,
C[C@H](NC(=O)CN1CC2CC(C1)N2CC(=O)NC(C)(C)C)C12CC3CC(CC(C3)C1)C2 [Compound 325],22.59%,2600 nM
C[C@H](NC(=O)CN1C[C@@H]2C[C@H]1CN2CC(=O)NC(C)(C)C)C12CC3CC(CC(C3)C1)C2 [Compound 326],66.987%,734 nM
Cc1cc(Cl)cc(NC(=O)CN2C[C@@H]3C[C@H]2CN3CC(=O)NC2(C(F)(F)F)CC2)c1 [Compound 327],87.352%,289 nM
CC1(C)CCN1C(=O)CN1C[C@@H]2C[C@H]1CN2CC(=O)NC12CC3CC(CC(C3)C1)C2 [Compound 328],48.833%,
CC(C)(CCN1C[C@@H]2C[C@H]1CN2CC(=O)NC12CC3CC(CC(C3)C1)C2)C(F)(F)F [Compound 329],59.633%,
O=C(CN1C[C@@H]2C[C@H]1CN2CC(=O)NC1(C(F)(F)F)CC1)Nc1ccc(F)c(OC(F)F)c1 [Compound 330],96.893%,
COc1cc(NC(=O)CN2CC3CC(C2)N3CC(=O)NC(C)(C)C)ccc1Cl [Compound 331],102.24%,
COc1cc(NC(=O)CN2CC3CC(C2)N3CC(=O)NC2(C(F)(F)F)CC2)ccc1Cl [Compound 332],101.57%,
COc1cc(F)cc(NC(=O)CN2CC3CC(C2)N3CC(=O)NC2(C(F)(F)F)CC2)c1 [Compound 333],82.813%,178 nM
COc1cc(Cl)cc(NC(=O)CN2CC3CC(C2)N3CC(=O)NC2(C(F)(F)F)CC2)c1 [Compound 334],79.86%,
Cc1cc(F)cc(NC(=O)CN2CC3CC(C2)N3CC(=O)NC2(C(F)(F)F)CC2)c1 [Compound 335],84.646%,338 nM
Cc1cc(Cl)cc(NC(=O)CN2CC3CC(C2)N3CC(=O)NC2(C(F)(F)F)CC2)c1 [Compound 336],87.863%,
COc1cc(NC(=O)CN2C[C@@H]3C[C@H]2CN3CC(=O)NC(C)(C)C)ccc1Cl [Compound 337],95.366%,< 78.2 nM
COc1cc(Cl)cc(NC(=O)CN2C[C@@H]3C[C@H]2CN3CC(=O)NC2(C(F)(F)F)CC2)c1 [Compound 339],87.995%,249 nM
Cc1cc(NC(=O)CN2C[C@@H]3C[C@H]2CN3CC(=O)NC2(C(F)(F)F)CC2)ccc1F [Compound 340],50%,
Cc1cc(NC(=O)CN2C[C@@H]3C[C@H]2CN3CC(=O)NC(C)(C)C)ccc1F [Compound 341],62.973%,447 nM
COC12CC3CC(CC(NC(=O)CN4C[C@@H]5C[C@H]4CN5CC(=O)NC(C)(C)C)(C3)C1)C2 [Compound 342],25.743%,1350 nM
CC(C)(C)NC(=O)CN1C[C@@H]2C[C@H]1CN2CC(=O)NC1CCCC(OC(F)F)C1 (stereo partly drawn) [Compound 343],32.872%,1930 nM
CC(C)(C)NC(=O)CN1C[C@@H]2C[C@H]1CN2CC(=O)NC12CC3CC(CC(Cl)(C3)C1)C2 [Compound 344],79.298%,417 nM
CC(C)(C)NC(=O)CN1C2CC1CN(CC(=O)NC13CC4CC(CC(Cl)(C4)C1)C3)C2 [Compound 345],42.634%,1190 nM
